system: hypoxia-inducible endogenous VEGF expression in HeLa cells; experiment: Hypoxia-inducible endogenous VEGF expression, VEGF ELISA of conditioned media (dose-response EC50); type: cell-based; conditions: Homo sapiens, HeLa cells under hypoxic conditions
Experimental: The ability of the compounds of the invention to modulate hypoxia-inducible endogenous VEGF expression may be analyzed as follows. VEGF protein levels may be monitored by an ELISA assay (R&D Systems). Briefly, HeLa cells may be cultured for 24-48 hours under hypoxic conditions (1% O2, 5% CO2, balanced with nitrogen) in the presence or absence of a compound of the invention. The conditioned media may then be assayed by ELISA, and the concentration of VEGF calculated from the standard ELISA curve of each assay.
A dose-response analysis may be performed using the ELISA assay and conditions described above. The conditions for the dose-response ELISA are analogous to those described above. A series of, e.g., seven different concentrations may be analyzed. […] Dose-response curves may be plotted using percentage inhibition versus concentration of the compound, and EC50 and CC50 values may be generated for each compound with the maximal inhibition set as 100% and the minimal inhibition as 0%.

EC50, 8 to 40 nM:
COC(=O)N1CCc2c([nH]c3ccc(Cl)cc23)C1c1ccc(Cl)cc1 (stereo not shown) [Compound 70]
CCCOC(=O)N1CCc2c([nH]c3ccc(Cl)cc23)C1c1ccc(C#N)cc1 (stereo not shown) [Compound 71]
CCCOC(=O)N1CCc2c([nH]c3ccc(Cl)cc23)C1c1cccc(Cl)c1 (stereo not shown) [Compound 72]
ON1CCc2c([nH]c3ccc(Br)cc23)C1c1cccc(F)c1F (stereo not shown) [Compound 73]
CCCOC(=O)N1CCc2c([nH]c3ccc(Cl)cc23)C1c1cccc(F)c1 (stereo not shown) [Compound 75]
O=C(Oc1ccccc1)N1CCc2c([nH]c3ccc(Br)cc23)C1c1ccccc1 (stereo not shown) [Compound 76]
CCOC(=O)N1CCc2c([nH]c3ccc(Cl)cc23)C1c1cc(F)cc(F)c1 (stereo not shown) [Compound 77]
CCOC(=O)N1CCc2c([nH]c3ccc(Br)cc23)C1c1ccc(F)c(F)c1 (stereo not shown) [Compound 78]
CCCOC(=O)N1CCc2c([nH]c3ccc(Cl)cc23)C1c1cccc(C(F)(F)F)c1 (stereo not shown) [Compound 79]
CC(=O)N1CCc2c([nH]c3ccc(Br)cc23)C1c1cccc(C(F)(F)F)c1 (stereo not shown) [Compound 80]
ON1CCc2c([nH]c3ccc(Br)cc23)C1c1ccc(Cl)cc1 (stereo not shown) [Compound 81]
CCOC(=O)N1CCc2c([nH]c3ccc(Cl)cc23)C1c1cc(F)ccc1F (stereo not shown) [Compound 82]
O=C(OCCCl)N1CCc2c([nH]c3ccc(Cl)cc23)C1c1cc(F)cc(F)c1 (stereo not shown) [Compound 83]
COC(=O)N1CCc2c([nH]c3ccc(Cl)cc23)C1c1cccc(F)c1 (stereo not shown) [Compound 84]
CC(C)OC(=O)N1CCc2c([nH]c3ccc(Cl)cc23)C1c1cccc(C(F)(F)F)c1 (stereo not shown) [Compound 85]
CCCOC(=O)N1CCc2c([nH]c3ccc(Cl)cc23)C1c1cccc(OC)c1 (stereo not shown) [Compound 86]
CC(C)OC(=O)N1CCc2c([nH]c3ccc(Cl)cc23)C1c1cccc(Cl)c1 (stereo not shown) [Compound 87]
COc1cccc(C2c3[nH]c4ccc(Cl)cc4c3CCN2C(=O)OC(C)C)c1 (stereo not shown) [Compound 88]
O=C(OCCCl)N1CCc2c([nH]c3ccc(Cl)cc23)C1c1ccc([N+](=O)[O-])cc1 (stereo not shown) [Compound 89]
CC(C)OC(=O)N1CCc2c([nH]c3ccc(Cl)cc23)C1c1cccc(F)c1 (stereo not shown) [Compound 90]
CCOC(=O)N1CCc2c([nH]c3ccc(Cl)cc23)C1c1ccc(C)cc1 (stereo not shown) [Compound 91]
COC(=O)N1CCc2c([nH]c3ccc(Cl)cc23)C1c1cc(F)cc(F)c1 (stereo not shown) [Compound 92]
CCOC(=O)N1CCc2c([nH]c3ccc(Cl)cc23)C1c1cccc(Br)c1 (stereo not shown) [Compound 93]
CCCOC(=O)N1CCc2c([nH]c3ccc(Cl)cc23)C1c1ccccc1 (stereo not shown) [Compound 94]
CC(C)OC(=O)N1CCc2c([nH]c3ccc(Cl)cc23)C1c1cccc(Br)c1 (stereo not shown) [Compound 95]
COC(=O)N1CCc2c([nH]c3ccc(Cl)cc23)C1c1ccccc1 (stereo not shown) [Compound 96]
CCCOC(=O)N1CCc2c([nH]c3ccc(Cl)cc23)C1c1ccccc1F (stereo not shown) [Compound 97]
CC(=O)N1CCc2c([nH]c3ccc(Br)cc23)C1c1cccc(Cl)c1 (stereo not shown) [Compound 98]
O=C(OCCCl)N1CCc2c([nH]c3ccc(Cl)cc23)C1c1cccc(Br)c1 (stereo not shown) [Compound 99]
CCOC(=O)N1CCc2c([nH]c3ccc(Cl)cc23)C1c1ccc(OCc2ccccc2)cc1 (stereo not shown) [Compound 100]
CC(C)OC(=O)N1CCc2c([nH]c3ccc(Cl)cc23)C1c1ccccc1 (stereo not shown) [Compound 101]
